# Experimental data reported in patent publication EP0062019A1, “New phenyl-perhydroazepines” (priority 1981, dated 1982).
# What was measured:
# [1] = test system: rabbit right ventricle papillary muscle; assay: Positive inotropic effect (contractility) in isolated, electrically driven papillary muscle; assay type: cell-based; conditions: for EC50 / Emax: Oryctolagus cuniculus; for EC50: iv, papillary muscle driven at 1HZ, rabbits pretreated with reserpine (5 mg/kg i.v.), Krebs-buffer pH 7.4, 32°C, read-out: Tmax EC50; for Emax: maximal effect compared with maximal effect of isoprenaline (intrinsic activity), rabbits pretreated with reserpine, read-out: Tmax ISA
# Protocol: (§1) Pharmacological studies on cardiac effects on heart frequency and contractility in isolated right atria and papillary muscle from rabbit.
# (§2) Rabbits with an average weight of 2.5 kg, pretreated with reserpine (5 mg/kg i.v.) about 16 hours before the experiment were used. The rabbits were killed by a blow and the hearts were rapidly removed. The right atria and a papillary muscle from the right ventricle were isolated and set up to contract isometrically in an organ bath. The bath contained 50 ml Krebs-buffer (pH 7.4) and the temperature was kept at 32°C.
# (§3) The contractions were measured by means of a force displacement transducer (Grass Model FT03) coupled to a.Grass Model 7 Polygraph with a preampliphier (Grass Model 7PIF). ,
# (§4) The spontaneously beating right atria was stretched to a resting tension high enough to measure the contractions and to trigger a tachograph for registration of the frequency. The papillary muscle was stretched to the length at which maximal tension was developed and was driven at a frequency of 1HZ by a current 20 per cent above threshold and with a duration of 5 msec.
# (§5) After 60 min. equilibration, dose response curves to cumulative concentrations of isoprenaline were constructed for chronotropic effect, i.e. increase in frequency (atria) and positive inotropic effect, i.e. increase in contractility (papillary muscle). After wash-out similar curves were constructed for the compounds employed according to the invention. The positive inotropic agent dopamine was included for comparison.
# (§6) In order to establish the maximal chronotropic and inotropic responses of the preparations, isoprenaline was added immediately after the maximal concentrations of the compounds. The maximal effects of the compounds compared with the maximal effect of isoprenaline are expressed as intrinsic activity (ISA).
# [2] = test system: rabbit right atria; assay: Chronotropic effect (heart frequency) in isolated spontaneously beating right atria; assay type: cell-based; conditions: Oryctolagus cuniculus; for EC50: iv, isolated right atria, rabbits pretreated with reserpine (5 mg/kg i.v.), Krebs-buffer pH 7.4, 32°C, read-out: HR EC50; for Emax: maximal effect compared with maximal effect of isoprenaline (intrinsic activity), rabbits pretreated with reserpine, read-out: HR ISA
# Protocol: as §1, §2, §3, §4, §5, §6
EC50 [1] [µM],EC50 [2] [µM],Compound,Emax [1] [%],EC50 for contractility relative to the EC50 for dopamine ([1]; fraction of the dopamine EC50),Emax [2] [%]
0.01,0.003,CC(C)NCC(O)c1ccc(O)c(O)c1 (stereo not shown) [Isoprenaline],100,,100
36,38,NCCc1ccc(O)c(O)c1 [Dopamine],77,,97

Compound,EC50 [1] [µM],EC50 [2] [µM],Emax [1] [%],EC50 for contractility relative to the EC50 for dopamine ([1]; fraction of the dopamine EC50),Emax [2] [%]
"CCCN1CCCCC(c2cccc(O)c2)C1 (stereo not shown) [Example 1, 3-(3-hydroxyphenyl)N-n-propylperhydroazepine]",11,0.35,37,about one third,31
